Source: ChEMBL document CHEMBL1124577, “LH-RH antagonists: design and synthesis of a novel series of peptidomimetics” (J Med Chem, 1989)

Tests used:
[1] = target: T1, Gonadotropin-releasing hormone receptor (Rattus norvegicus, UniProt P30969); assay: Binding affinity at Leutinizing releasing hormone receptor in rat pituitary using [125I]leuprolide as radioligand
T1 sequence (P30969 whole entry): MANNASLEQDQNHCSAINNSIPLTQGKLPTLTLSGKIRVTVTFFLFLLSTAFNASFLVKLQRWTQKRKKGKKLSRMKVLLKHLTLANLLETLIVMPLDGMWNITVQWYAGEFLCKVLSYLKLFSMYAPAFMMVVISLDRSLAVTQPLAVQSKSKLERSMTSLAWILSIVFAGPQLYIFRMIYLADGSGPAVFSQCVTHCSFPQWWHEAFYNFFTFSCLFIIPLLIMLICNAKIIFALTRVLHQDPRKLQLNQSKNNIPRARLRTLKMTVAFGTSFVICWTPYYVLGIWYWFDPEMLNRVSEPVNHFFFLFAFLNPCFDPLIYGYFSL

[2] = target: T1, Gonadotropin-releasing hormone receptor; assay: Dissociation constant was determined in vitro using rat pituitary membranes, at concentration 1.0*10e-5 M; format: cell membranes
[3] = target: T1, Gonadotropin-releasing hormone receptor; assay: Dissociation constant was determined in vitro using rat pituitary membranes and [125I]leuprolide as radioligand, at concentration 3.16*10e-5 M; format: cell membranes
[4] = target: T2, Gonadotropin-releasing hormone receptor (Rattus norvegicus) (UniProt P30969); assay: Apparent receptor density at 3.16*10e-5 M concentration
T2 sequence (whole entry): T1 sequence (P30969 whole entry)

[5] = target: T1, Gonadotropin-releasing hormone receptor; assay: Dissociation constant was determined in vitro using rat pituitary membranes and [125I]-leuprolide as radioligand, at concentration 3.16*10e-6 M; format: cell membranes
[6] = target: T1, Gonadotropin-releasing hormone receptor; assay: Binding affinity at LH-RH receptor in rat pituitary using [125I]leuprolide as radioligand
[7] = target: T2, Gonadotropin-releasing hormone receptor (Rattus norvegicus); assay: Apparent receptor density at 3.16*10e-6 M concentration
[8] = species: Rattus norvegicus; assay: Antagonism of leuprolide-induced release of luteinizing hormone from rat pituitary cell; format: functional; settings: Pituitary gland cell, read-out: pA2 (converted)
[9] = target: T2, Gonadotropin-releasing hormone receptor (Rattus norvegicus); assay: Apparent receptor density at 1.0*10e-5 M concentration

O=C(NC[C@H]1CO[C@](Cn2ccnc2)(c2ccc(Cl)cc2Cl)O1)[C@H](Cc1c[nH]cn1)NC(=O)[C@@H]1CCC(=O)N1C(=O)OCc1ccccc1
IC50 [1]: 2000 nM

Clc1ccc([C@@]2(Cn3ccnc3)OC[C@H](COc3ccccc3)O2)c(Cl)c1
IC50 [1]: > 30000 nM

Clc1ccc([C@@]2(Cn3ccnc3)OC[C@H](CNCc3c[nH]c4ccccc34)O2)c(Cl)c1
IC50 [1]: > 30000 nM

CC(=O)N1CCN(c2ccc(OCC3COC(Cn4ccnc4)(c4ccc(Cl)cc4Cl)O3)cc2)CC1 (configuration not stated) [KETOCONAZOLE]
Kd [2]: 0.375 nM
Kd [3]: 811 nM
Bmax [4]: 1.6 pmol/mg
Kd [5]: 0.221 nM
IC50 [6]: 2000 nM
Bmax [7]: 1.91 pmol/mg
Kb [8]: 64600 nM
Bmax [9]: 2.01 pmol/mg

CC(C)(C)OC(=O)N[C@@H](Cc1c[nH]c2ccccc12)C(=O)N1CCC[C@H]1C(=O)N[C@@H](CC1=CNCN1)C(=O)NC[C@H]1CO[C@](Cn2ccnc2)(c2ccc(Cl)cc2Cl)O1
IC50 [1]: 500 nM
Kb [8]: 4570 nM

O=C(NC[C@H]1CO[C@](Cn2ccnc2)(c2ccc(Cl)cc2Cl)O1)C1CCC(=O)N1C(=O)OCc1ccccc1 (some centres not stated)
IC50 [1]: > 30000 nM

OC[C@H]1CO[C@](Cn2ccnc2)(c2ccc(Cl)cc2Cl)O1
IC50 [1]: > 30000 nM

O=C1c2ccccc2C(=O)N1C[C@H]1CO[C@](Cn2ccnc2)(c2ccc(Cl)cc2Cl)O1
IC50 [1]: > 30000 nM

CCC(C)n1ncn(-c2ccc(N3CCN(c4ccc(OC[C@H]5CO[C@](Cn6ccnc6)(c6ccc(Cl)cc6Cl)O5)cc4)CC3)cc2)c1=O (some centres not stated)
IC50 [1]: > 30000 nM
